Assays:
4T1-luc2 tumors = experiment: Spontaneous lung metastasis in 4T1-luc2 breast tumor model; type: in vivo, mice; conditions: ER-886046 150 mg/kg po daily days 9-27 + single radiation 9 Gy; day 27
Procedure: FIG. 6A to FIG. 6B. Anti-pulmonary metastasis activity of ER-886046/radiation in breast 4T1 tumor model. 4T1-luc2 cells were subcutaneously (sc) inoculated into the Ba1B/c mice. When the average size of tumors reached 100 mm^3, the tumors were radiated with a dose of 9 Gy once with or without daily oral administration of ER-886046 at dose of 150 mg/kg. Panel shown in FIG. 6A) At the end of study on day 27, lung metastasis of the animals was analyzed and quantified by luciferase expression. Panel shown in FIG. 6B) Representative IVIS images of each group are shown. Student t-test was used for statistic analysis.
(§1) In case of tumor rechallenge of tumor-free mice after treatments, CT26 cells and 4T1 cells were individually sc injected into the different flanks of the same mouse, and the growth of each tumor was measured and graphed as described above. […] At the end of study on day 27, the mice in all treatment groups were intranasally administered luciferin and the lungs were resected and analysed for luciferase expression using IVIS instrument. Quantification of the luciferase activity in the lungs was achieved by software Living Image.
Anti-spontaneous metastatic effect of ER-886046 and radiation combination therapy. […] At day 27, the mice in all treatment groups were intranasally administered luciferin and the lungs were resected and analyzed for luciferase expression.

PAN02 pancreatic tumors = experiment: PAN02 pancreatic tumor model, ER-886046 with gemcitabine and radiation; type: in vivo, mice
Procedure: FIG. 10. […] Antitumor activity of gemcitabine plus local radiation (RT) administered to PAN02 pancreatic tumors in C57BL/6 mice with or without ER-886046. Gemcitabine and RT dosing: a single 40 mg/kg dose of gemcitabine and a single 6 Gy dose of RT, was administered on day 27 post tumor cell injection. ER-8806046 was administered daily in an amount of 150 mg/kg from day 27 post tumor cell injection until the end of the study.
FIG. 11A to FIG. 11B. Additional experiments with combination therapy of ER-886046 and anti-metabolite chemotherapy with radiation compared to anti-metabolite chemotherapy with radiation alone. Panel shown in FIG. 11A) Gemcitabine and RT dosing: a single 40 mg/kg dose of gemcitabine and a single 6 Gy dose of RT, was administered on day 19 post tumor cell injection. ER-8806046 was administered daily in an amount of 150 mg/kg from day 19 post tumor cell injection until the end of the study. Panel shown in FIG. 11B) Gemcitabine and RT dosing: a single 40 mg/kg dose of gemcitabine and a single 6 Gy dose of RT, was administered on day 12 post tumor cell injection. ER-8806046 was administered daily in an amount of 150 mg/kg from day 12 post tumor cell injection until the end of the study. Average tumor sizes of mouse pancreatic PAN02 tumor-bearing mice that received vehicles, ER-886046, gemcitabine (gem) plus radiation (RT), ER-886046 plus RT, or ER-886046 plus gemcitabine and RT at indicated dosages and schedules. A and B represent each independent study. N=8-10 per group. NS, not significant; *, p<0.05; **, p<0.01; ***, p<0.001; and ****, p<0.0001, two-way ANOVA test.
Animal studies; In vitro cultured cancer cells were harvested and suspended in 100 μl of cold HBSS buffer at cell concentrations of 1.0×10^6 cells/ml (CT-26 cells) or of 1.0×10^7 cells/ml (PAN02 cells) and subcutaneously (sc) injected into the mice using a 26 g syringe on day 0. At the dates as indicated in the figures, the mice were randomized based on the tumor size followed by treatments with local radiation alone, gemcitabine alone (intravenous administration), ER-886046 alone (oral administration), or combinations of these treatments. […] The tumor sizes were measured twice a week by a digital caliber (Mitutoyo Corp), and the volume was calculated using the formula (1×w^2)/2=mm^3, where 1 and w refer to the larger and smaller perpendicular dimensions collected at each measurement. Graphs of group tumor sizes (mean±SEM) versus time were plotted using software GraphPad Prism 6 (Lake Forest, Calif.). Two way ANOVA was used for statistical calculation among the groups. N=8-10 in each treatment group.

CT26 cells = experiment: Rechallenge of cured (tumor-free) mice with CT26 cells; type: in vivo; conditions: mice cured by ER-886046 + radiation
Excerpt: FIG. 4A to FIG. 4C. Long lasting anti-tumor effect with a memory immune response by ER-886046/radiation treatment. Panel shown in FIG. 4A) Tumor growth in the cured mice by ER-886046 and radiation combination treatment or in the naïve Ba1B/c mice that received injection of CT26 cells. Panel shown in FIG. 4B) Tumor growth of secondarily challenged CT-26 tumors in the cured mice or in naïve mice. Panel shown in FIG. 4C) Growth of 4T1 tumors in cured mice or in naïve mice. N=9-10. Note the complete rejection of challenged CT-26 tumor and reduced growth of challenged 4T1 tumors in the combination cured mice. ***, p<0.001. 2 tailed student t-test. Note that no treatment was applied to any animals.
as §1, with “above. Naïve mice that received neither cancer cell injection nor drug treatment were included as controls.” for “above.”

## C[C@H](NC(=O)c1c(C(F)F)nn(C)c1Oc1cccc(C(F)(F)F)c1)c1ccc(C(=O)O)cc1 [ER-886046]
4T1-luc2 tumors
  luciferase expression in lungs (lung metastasis): significant reduction
PAN02 pancreatic tumors; ER-886046 150 mg/kg daily + RT 6 Gy, first study (FIG. 10)
  anti-tumor activity, ER-886046 plus RT vs triple combination: no significant difference in the anti-tumor activity
PAN02 pancreatic tumors; ER-886046 150 mg/kg daily from day 27 + gemcitabine 40 mg/kg + RT 6 Gy day 27, first study (FIG. 10)
  anti-tumor activity, triple combination: best anti-tumor activity among the treatment groups
PAN02 pancreatic tumors; ER-886046 150 mg/kg daily from day 27, first study (FIG. 10)
  anti-tumor activity, ER-886046 alone: more efficacious than RT plus gemcitabine
PAN02 pancreatic tumors; triple combination ER-886046 + gemcitabine + RT, day 36 after tumor cell inoculation (FIG. 11B)
  tumor-bearing animals cured: five of eight
CT26 cells; 1.5 months after the first challenge
  tumor growth after secondary CT26 challenge: did not produce detectable tumor
CT26 cells; monitored 1.5 months, no further treatment
  tumor growth after CT26 challenge at another site: did not grow tumors at all
